ChEMBL document CHEMBL1806493, “Synthesis and biological activities of 4-N-(anilinyl-n-[oxazolyl])-7-chloroquinolines (n=3' or 4') against Plasmodium falciparum in in vitro models” (Bioorg Med Chem Lett, 2011)
pIC50: −log10 of the molar value. The source made the active and inactive calls. The rule behind the calls is not given here.

Key:
Plasmodium falciparum [1] = assay: Antiplasmodial activity against chloroquine-sensitive Plasmodium falciparum 3D7A assessed as death of all detectable parasites at two days dosage of 0.5 to 500 uM using Hema 3 staining by microscopic analysis; assay type: functional, organism-based
[2] = Toxicity in human mononuclear leukocytes assessed as decrease in cell health at 5 to 500 uM after 5 days by microscopic analysis; assay type: cell-based; details: 120 h
Plasmodium falciparum [3] = assay: Antiplasmodial activity against chloroquine-sensitive Plasmodium falciparum 3D7A assessed as death of all detectable parasites at 4 days dosage of 0.5 to 500 uM using Hema 3 staining by microscopic analysis; assay type: functional, organism-based
Plasmodium falciparum [4] = assay: Antiplasmodial activity against chloroquine-sensitive Plasmodium falciparum 3D7A assessed as death of all detectable parasites at 4 days dosage of 0.05 uM using Hema 3 staining by microscopic analysis; assay type: functional, organism-based
Plasmodium falciparum [5] = assay: Antiplasmodial activity against chloroquine-sensitive Plasmodium falciparum 3D7A assessed as death of all detectable parasites at two days dosage of 0.05 uM using Hema 3 staining by microscopic analysis; assay type: functional, organism-based
Plasmodium falciparum [6] = assay: Antiplasmodial activity against chloroquine-sensitive Plasmodium falciparum 3D7 after 48 hrs using Hema 3 staining by microscopic analysis; assay type: functional, organism-based; details: 3D7, 48 h
Plasmodium falciparum [7] = assay: Antiplasmodial activity against chloroquine-resistant Plasmodium falciparum K1 after 48 hrs using Hema 3 staining by microscopic analysis; assay type: functional, organism-based; details: K1, 48 h
Plasmodium falciparum [8] = assay: Antiplasmodial activity against chloroquine-sensitive Plasmodium falciparum 3D7A assessed as parasitaemia level at 4 days dosage of 5 uM using Hema 3 staining by microscopic analysis; assay type: functional
Plasmodium falciparum [9] = assay: Antiplasmodial activity against chloroquine-sensitive Plasmodium falciparum 3D7A assessed as death of all detectable parasites at two days dosage of 50 to 500 uM using Hema 3 staining by microscopic analysis; assay type: functional, organism-based
Plasmodium falciparum [10] = assay: Antiplasmodial activity against chloroquine-sensitive Plasmodium falciparum 3D7A assessed as parasitaemia level at 4 days dosage of 5 uM measured on day 9 using Hema 3 staining by microscopic analysis; assay type: functional
Plasmodium falciparum [11] = assay: Antiplasmodial activity against chloroquine-sensitive Plasmodium falciparum 3D7A assessed as death of all detectable parasites at 4 days dosage of 50 to 500 uM using Hema 3 staining by microscopic analysis; assay type: functional, organism-based
Plasmodium falciparum [12] = assay: Antiplasmodial activity against chloroquine-sensitive Plasmodium falciparum 3D7A assessed as parasitaemia level at two days dosage of 5 uM measured on day 9 using Hema 3 staining by microscopic analysis; assay type: functional
Plasmodium falciparum [13] = assay: Antiplasmodial activity against chloroquine-sensitive Plasmodium falciparum 3D7A assessed as undetectable parasitaemia level at 4 days dosage of 5 uM measured on day 3 using Hema 3 staining by microscopic analysis; assay type: functional, organism-based
Plasmodium falciparum [14] = assay: Antiplasmodial activity against chloroquine-sensitive Plasmodium falciparum 3D7A assessed as parasitaemia level at two days dosage of 5 uM measured on day 2 using Hema 3 staining by microscopic analysis; assay type: functional
Plasmodium falciparum [15] = assay: Antiplasmodial activity against chloroquine-sensitive Plasmodium falciparum 3D7A assessed as assessed as parasitaemia level at two days dosage of 500 uM using Hema 3 staining by microscopic analysis; assay type: functional
Plasmodium falciparum [16] = assay: Antiplasmodial activity against chloroquine-sensitive Plasmodium falciparum 3D7A assessed as assessed as parasitaemia level at 4 days dosage of 500 uM using Hema 3 staining by microscopic analysis; assay type: functional

Structure (SMILES)	Activity [2]	pIC50 (Plasmodium falciparum [6])	pIC50 (Plasmodium falciparum [7])	Activity (Plasmodium falciparum [9])	Activity (Plasmodium falciparum [11])	also measured
CCN(CC)CCCC(C)Nc1ccnc2cc(Cl)ccc12 (stereo not given) [CHLOROQUINE]	Toxic	–	–	–	–	Activity (Plasmodium falciparum [1]): Active; Activity (Plasmodium falciparum [3]): Active; Activity (Plasmodium falciparum [4]): inactive; Activity (Plasmodium falciparum [5]): inactive
Clc1ccc2c(Nc3cccc(C4=NCCO4)c3)ccnc2c1	Toxic	7.04	6.05	Active	Active	Activity (Plasmodium falciparum [8]): 0%; Activity (Plasmodium falciparum [10]): 5%
Clc1ccc2c(Nc3ccc(C4=NCCO4)cc3)ccnc2c1	Toxic	6.72	6.07	Active	Active	Activity (Plasmodium falciparum [12]): 5%; Activity (Plasmodium falciparum [13]): Active; Activity (Plasmodium falciparum [14]): 0.25%
CC1(C)COC(c2ccc(Nc3ccnc4cc(Cl)ccc34)cc2)=N1	–	6.51	< 6.00	–	–	Activity (Plasmodium falciparum [15]): 0%; Activity (Plasmodium falciparum [16]): 0%
O=C1C(O)=C([C@H]2CC[C@H](c3ccc(Cl)cc3)CC2)C(=O)c2ccccc21 [ATOVAQUONE]	–	–	7.75	–	–	–
CC1(C)COC(c2cccc(Nc3ccnc4cc(Cl)ccc34)c2)=N1	Toxic	7.08	6.15	Active	Active	–
